Eleven compounds from PubChem BioAssay (NCI) can be followed below.

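Assay format: 96-well plates, 48-hour exposure. TGI denotes the concentration required for complete inhibition of growth.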 *1 amine or outer side, *2 acyl side, *3 side chain or, on linkers, in order; H or OH if unused. Where a SMILES comes first, the peptide text is derived from it. Bridges are numbered along the chain shown (N, C = ends). Roman numbers before positions name the chains, in order. [ ]: non-standard residue; d: D form. Actinocin(9to1) = Cc1c2oc3c(C)ccc(C(=O)[*:1])c3nc-2c(C(=O)[*:2])c(N)c1=O; NMeH = CN[CH](Cc1c[nH]cn1)C(=O)O; Sar = CNCC(=O)O A value given as a limit tells only on which side of the number the result lay.

Test systems include EKVX NSCLC; NCI-H522 lung; SK-OV-3 ovarian; MCF7 breast; MDA-N; NCI-H226 lung; OVCAR-3 ovarian; KM12 colon.
What all share (assay): NCI-60 cell line screen, 48 h

For the compound `C#C[C@]1(O)CC[C@H]2[C@@H]3CCC4=C/C(=N/NC(=O)c5cccc6c(=O)c7ccccc7[nH]c56)CCC4[C@H]3CC[C@@]21C` (stereo partly drawn), the TGI is greater than 100 µM in the assay on EKVX NSCLC; 86 µM in the assay on NCI-H522 lung; greater than 100 µM with SK-OV-3 ovarian; greater than 100 µM with MCF7 breast; greater than 100 µM in the assay with MDA-N; greater than 100 µM with NCI-H226 lung. In addition, the TGI in the assay on OVCAR-3 ovarian and with KM12 colon was greater than 100 µM in each case.

As to `CN1/C(=C/C=C/C=C/C=C2C(=O)c3ccccc3C2=O)C(C)(C)c2ccccc21`, the TGI in the assay with EKVX NSCLC, in the assay on NCI-H522 lung, in the assay on SK-OV-3 ovarian, in the assay on MCF7 breast, in the assay with MDA-N and in the assay with NCI-H226 lung was greater than 100 µM each time. The TGI in the assay with OVCAR-3 ovarian and with KM12 colon was greater than 100 µM each time.

Consider `Cc1c2oc3c(C)ccc(C(=O)NC4C(=O)NC(C(C)C)C(=O)N5CCCC5C(=O)N(C)CC(=O)N(C)C(Cc5cnc[nH]5)C(=O)OC4C)c3nc-2c(C(=O)NC2C(=O)NC(C(C)C)C(=O)N3CCCC3C(=O)N(C)CC(=O)N(C)C(Cc3cnc[nH]3)C(=O)OC2C)c(N)c1=O` (stereo not drawn) (I: TVP[Sar][NMeH] / II: TVP[Sar][NMeH]; ester I:1-I:C, II:1-II:C; linker I:N-II:N via Actinocin(9to1); configuration not given here), for which the TGI in the assay with EKVX NSCLC is greater than 100 µM; in the assay on NCI-H522 lung it was greater than 100 µM; in the assay with SK-OV-3 ovarian it was greater than 100 µM; in the assay on MCF7 breast, greater than 100 µM; in the assay on MDA-N it was 81.4 µM; in the assay on NCI-H226 lung it was greater than 100 µM. In addition, the TGI in the assay on OVCAR-3 ovarian and in the assay on KM12 colon was greater than 100 µM throughout.

As for `COc1cc2ccc(C(=O)NCCCNC(=O)c3ccc4cc(OC)c(OC)cc4c3)cc2cc1OC`, the TGI in the assay on EKVX NSCLC, in the assay on NCI-H522 lung, in the assay with SK-OV-3 ovarian, with MCF7 breast, with MDA-N and with NCI-H226 lung was greater than 100 µM each time. Moreover, the TGI in the assay with OVCAR-3 ovarian and in the assay on KM12 colon was greater than 100 µM in each case.

Consider `CC(=O)n1cc(C2CC23N=C(c2ccccc2)OC3=O)c2ccccc21` (stereo not drawn), for which the TGI with EKVX NSCLC was 51.1 µM; in the assay on NCI-H522 lung, 37.3 µM; in the assay with SK-OV-3 ovarian, greater than 100 µM; in the assay with MCF7 breast, 42.9 µM; with MDA-N it was 81.7 µM; in the assay on NCI-H226 lung it was 44.5 µM. The TGI was 53.4 µM with OVCAR-3 ovarian and 48.7 µM with KM12 colon.

For the compound `C[C@]12CC[C@H]3[C@@H](CCC4=CC(=O)C=C[C@@]43OC(=O)C(F)(F)F)[C@@H]1CCC2=O`, the TGI in the assay on EKVX NSCLC, in the assay with NCI-H522 lung, in the assay with SK-OV-3 ovarian, with MCF7 breast, with MDA-N and with NCI-H226 lung was greater than 100 µM throughout. The TGI in the assay on OVCAR-3 ovarian and in the assay on KM12 colon was greater than 100 µM in each case.

As for `COc1cc(/C=C2\CC/C(=C\c3cc(OC)c(O)c(OC)c3)C2=O)cc(OC)c1O`, the TGI in the assay with EKVX NSCLC is 16.5 µM; in the assay with NCI-H522 lung, 2.75 µM; in the assay on SK-OV-3 ovarian, greater than 100 µM; in the assay on MCF7 breast, greater than 26.7 µM; with MDA-N, greater than 23.4 µM; in the assay on NCI-H226 lung, greater than 33.3 µM. For the same compound, the TGI with OVCAR-3 ovarian is greater than 21.8 µM; in the assay with KM12 colon, 4.52 µM.

Take `C[C@@H]1[C@@H](C)C(c2ccccc2)O[Si]1(C(C)(C)C)C(C)(C)C` (stereo partly drawn): the TGI in the assay with EKVX NSCLC was 33.4 µM; in the assay on NCI-H522 lung, 28.7 µM; in the assay with SK-OV-3 ovarian, greater than 69.3 µM; with MCF7 breast, 31.9 µM; in the assay with MDA-N it was 48.4 µM; in the assay on NCI-H226 lung, 40.9 µM. Also, the TGI was 30.1 µM in the assay with OVCAR-3 ovarian and 30.6 µM in the assay with KM12 colon.

`Cc1cc(S(=O)(=O)Nc2nc3ncccc3[nH]2)c(S)cc1Cl`: the TGI in the assay on EKVX NSCLC, with NCI-H522 lung, with SK-OV-3 ovarian, in the assay on MCF7 breast, in the assay on MDA-N and in the assay with NCI-H226 lung was greater than 100 µM throughout. Besides, the TGI in the assay with OVCAR-3 ovarian and in the assay with KM12 colon was greater than 100 µM throughout.

Consider `CC1=NN(c2cccc(Cl)c2)C2(C1=Cc1ccc(O)cc1)C(Cl)C(=O)N2c1nc2ccccc2s1` (stereo not drawn), for which the TGI with EKVX NSCLC is greater than 100 µM; in the assay with NCI-H522 lung, 49 µM; in the assay on SK-OV-3 ovarian it was 57.4 µM; in the assay with MCF7 breast it was 98.4 µM; with MDA-N, 64.8 µM; in the assay on NCI-H226 lung it was greater than 100 µM. In addition, the TGI is greater than 100 µM with OVCAR-3 ovarian and 65 µM in the assay with KM12 colon.

Take `CC1C(NNC(N)=O)Oc2cc3c(cc2C1c1ccccc1O)OCO3` (stereo not drawn): the TGI with EKVX NSCLC is greater than 100 µM; in the assay with NCI-H522 lung, 58.6 µM; with SK-OV-3 ovarian, greater than 100 µM; in the assay with MCF7 breast, greater than 100 µM; in the assay with MDA-N it was 76.7 µM; in the assay on NCI-H226 lung, greater than 100 µM. Moreover, the TGI with OVCAR-3 ovarian and in the assay with KM12 colon was greater than 100 µM each time.
